# Data taken from patent US20210024499A1, “OXIDIZED BIS(3-INDOLYL)METHANES AND USES THEREOF” (Sanford Burnam Prebys Medical Discovery Institute, priority 2018, published 2021).
# Tests used:
# HCT116 cancer cells = test: Apoptosis assay, Annexin V-FITC/propidium iodide flow cytometry; type: cell-based; conditions: Homo sapiens, HCT-116, 6 hours, Annexin V-FITC/PI flow cytometry (Table 4)
# Protocol: HCT116 cancer cells plated at a density of 1×10^6 per well on six-well plates were treated with different concentration of test compounds for 6 hours, and then the suspension and the adherent cells were collected, stained with Annexin V-FITC for 15 minutes and with propodium iodide for 5 minutes, and analyzed immediately by cytoFLEX Flow Cytometry System (Beckman-Coulter, Miami, Fla., USA) using FITC and PC5.5 (Table 4).
# MDA-MB-231 cancer cells = test: Cell viability (MTT) assay, MDA-MB-231; type: cell-based; conditions: Homo sapiens; inhibiting the growth of MDA-MB-231 cancer cells, cell viability assay (Table 6)
# Protocol: Cell viability was analyzed by using a colorimetric 3-(4,5-dimethylthiazol-[…]2-yl)-2,5-diphenyletetrazolium Bromide (MTT) assay that determines mitochondrial dehydrogenase activities in the living cells with a colorimetric method. Cells treated with test compounds were incubated with MTT and their effect on the viability of the cells was assayed by the ability of treated cells to reduce the yellow tetrazolium dye MTT to its insoluble formazan, which has a purple color. […]
# MDA-MB-231 cells [1] = test: PARP cleavage assay (Western blotting), MDA-MB-231; type: cell-based; conditions: 0.5 μM, 6 hours
# From the text: Compound 1a had no effect under the same conditions (FIG. 1A). […] Compound 1a, 28a, 47a, 48a, 73a, 39a, 70a, 103a, 89a and 88a had no effect under the same conditions (FIG. 3B-C).
# MDA-MB-231 cells [2] = test: Flow cytometry-based Annexin V/PI apoptosis assay, MDA-MB-231; type: cell-based; conditions: 1 μM, 6 hours
# MDA-MB-231 cells [3] = test: Mitochondrial ROS, MDA-MB-231; type: cell-based; conditions: dose dependent, 6 hours
# Protocol: Loss of mitochondrial membrane potential (Avm) represents one of the hallmarks of apoptosis. A JC-1 probe was employed to measure mitochondrial depolarization in cancer cells. MDA-MB-231 breast cancer cells were treated with different concentration of test compounds for 6 hours. JC-1 staining solution (5 μg/ml) was added at 37° C. for 20 min. After washing with PBS twice, mitochondrial membrane potentials were monitored by determining the relative amounts of dual emission from a multiple fluorescence reader. The fluorescence in cells was quantitatively analyzed by flow cytometry. Mitochondrial depolarization is depicted by an increase in the green/red fluorescence intensity ratio. ROS were monitored with the oxiadtion-senstive fluorescent probe 2′7′-dichlorodihydroflurescenin diacetate (DCF-DA).
# PyMT mammary tumor = test: MMTV-PyMT mice breast cancer model; type: in vivo; conditions: for growth of PyMT mammary tumor: 18 days
# Protocol: Female MMTV-PyMT mice of 12 weeks old were randomly divided into two groups (n=7 each), treated with a daily oral dose of test compound for 18 days. Standard histopathological analysis of tumor tissue was performed (see Example A-19). Test compounds were dissolved in DMSO and diluted with normal saline containing 5.0% (V/V) Tween-80 to a final concentration 0.5 mg/ml. Normal saline with DMSO and 5.0% Tween-80 was employed as the vehicle control.
# 4 μm thick sections were deparaffinized and rehydrated using xylene and a graded series of ethanol (100, 95, 85, 75, 50%), followed by washing in PBS. Antigen retrieval was performed in 10 mM sodium citrate buffer (pH 6.0), which was microwaved at 100° C. for 20 minutes. After rinsed twice in PBS, sections were blocked at room temperature for 1 hour by using 10% normal goat serum, followed by incubation with anti-ki-67, anti-cleaved-caspase-3, overnight (at least 17 hours) at 4° C. Colors were developed with a DAB horseradish peroxidase color development kit.
# Bcl-2−/−MEF cells = test: DAPI staining for apoptosis, Bcl-2-/- MEFs; type: cell-based, mouse; conditions: 0.5 μM
# From the text: The apoptotic effect of Compound 1 was also examined in mouse embryonic fibroblast (MEF) and MEF lacking Bcl-2 (Bcl-2^−/−MEF). […] Apoptotic cells were counted in 200 cells.
# Bcl-2−/−HeLa cells = test: Annexin V/PI staining, Bcl-2 knockout HeLa; type: cell-based
# Protocol: Knocking out Nur77 and Bcl-2 from HeLa cells employed the CRISPR/Cas9 system. gRNA targeting sequence of Nur77 (5′-[…]-3′) and Bcl-2 (5′-[…]-3′) was cloned into gRNA cloning vector Px330 (Addgene, 71707) and confirmed by sequencing. To screen for cells lacking Nur77 or Bcl-2, HeLa cells were transfected with control vector and gRNA expression vectors, followed by G418 selection (0.5mg/m1). Single colonies were subjected to Western blotting using anti-Nur77 and anti-Bcl-2 antibody to select knockout cells.
# The apoptotic effect of Compound lwas also evaluated in Bcl-2 genome knockout HeLa cells generated by CRISPR/Cas9 technology (Example A-5).
# Nur77-LBD = target: T1, Nur77-LBD (Homo sapiens, UniProt P22736); test: Surface plasmon resonance (SPR) binding to Nur77-LBD; conditions: Nur77-LBD protein, 25° C.
# T1 construct: Protein spectra of purified Nur77-LBD at temperature 50° C. and above changed substantially; His (N); made in house
# T1 sequence (P22736 360-595 limits assumed): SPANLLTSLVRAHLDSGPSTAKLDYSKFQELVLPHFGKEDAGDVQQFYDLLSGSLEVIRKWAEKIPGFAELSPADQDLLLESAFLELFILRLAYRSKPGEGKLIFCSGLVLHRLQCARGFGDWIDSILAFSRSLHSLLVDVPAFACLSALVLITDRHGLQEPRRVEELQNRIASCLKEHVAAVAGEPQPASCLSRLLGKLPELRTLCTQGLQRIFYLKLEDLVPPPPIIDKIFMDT
# Protocol: The binding kinetics between Nur77-LBD and test compounds was analyzed at 25° C. on a BlAcore T200 machine with CMS chips (GE Healthcare). PBSP was used for all measurements. For SPR measurements, Nur77-LBD proteins were purified. A blank channel was used as negative control. About 10,000 response units of Nur77-LBD were immobilized on the chips. When the data collection was finished in each cycle, the sensor surface was regenerated with Glycine-HCl 2.5. A serial of concentrations ranging from 0.15 to 5.0 μM were designed for the experiment. Sensograms were fit globally with BIAcore T200 analysis using 1:1 Langumuir binding mode.
# [4] = test system: Nur77 interaction with Bcl-2; test: Cell-based co-immunoprecipitation of Nur77 and Bcl-2
# Protocol: Western blotting and co-immunopreciptations (co-IP) were performed. Briefly, cells transfected with or without expression vectors for Nur77 and Bcl-2 were treated with test compounds for 2 hours. The effect of compounds on the interaction of endogenous or transfected Nur77 and Bcl-2 was analyzed by co-immunoprecipitation using appropriate antibodies. Proteins immunoprecipitated from cells by an appropriate anti-Nur77 or anti-Bcl-2 antibody were analyzed by Western blotting.
# [5] = test system: Nur77 interaction with Bcl-2; test: Confocal microscopy colocalization of Nur77 with Bcl-2; type: cell-based
compound,measurement,setting,value
"FC(F)(F)c1ccc([C+](c2c[nH]c3ccccc23)c2c[nH]c3ccccc23)cc1 [Compound 1, Bis(1H-indol-3-yl)(4-(trifluoromethyl)phenyl)methylium methanesulfonate]",IC50,HCT116 cancer cells,< 500 nM
same,IC50,MDA-MB-231 cancer cells,< 500 nM
same,PARP cleavage,MDA-MB-231 cells [1],effectively induced PARP cleavage
same,apoptotic cells (Annexin V/PI),MDA-MB-231 cells [2],about 31.63%
same,intracellular mitochondrial reactive oxygen species (mito-ROS),MDA-MB-231 cells [3],marked increase
same,expression levels of mTOR markers p-S6 and p-mTOR in tumor,PyMT mammary tumor; 3 mg/kg,markedly reduced
same,growth of PyMT mammary tumor,PyMT mammary tumor; 3 mg/kg daily oral,inhibited the growth of PyMT mammary tumor
same,growth of PyMT mammary tumor,PyMT mammary tumor; 5 mg/kg daily oral,inhibited the growth of PyMT mammary tumor
same,expression levels of proliferation markers PCNA and Ki67 in tumor tissues,"PyMT mammary tumor; 5 mg/kg, Western blotting",markedly reduced
same,cleaved caspase 3 in tumor tissue specimens,"PyMT mammary tumor; 5 mg/kg, immunostaining",enhanced expression of cleaved caspase 3
same,cells with chromatin condensation and nuclear fragmentation (DAPI),Bcl-2−/−MEF cells,14%
same,apoptotic effect (Annexin V/PI staining),Bcl-2−/−HeLa cells,7.95%
same,Kd,Nur77-LBD,100 nM
same,Nur77 interaction with Bcl-2 (Co-IP),[4]; Nur77 transfected in HeLa cells,interacted with Bcl-2
same,endogenous Nur77 immunoprecipitated with endogenous Bcl-2,[4]; anti-Bcl-2 antibody,specifically immunoprecipitated together with endogenous Bcl-2
same,Nur77 or Nur77-LBD interaction with Bcl-2 (Co-IP),[4]; transfected in HEK293T cells,interacted with Bcl-2
same,colocalization of transfected GFP-Nur77 (and GFP-Nur77-LBD) with Bcl-2,[5],promoted extensive colocalization
